Results: article PMC10742472, “Synthesis and Characterisation of Platinum(II) Diaminocyclohexane Complexes with Pyridine Derivatives as Anticancer Agents” (International Journal of Molecular Sciences, 2023)

System: H460 (Lung)
Assay: MTT cytotoxicity assay, H460
Format: cell-based
Details: 72 h exposure

Structure (SMILES)	GI50 [µM]
N.N.[Cl][Pt][Cl] [Cisplatin, reference compound]	2.4 ± 0.3
[Cl][Pt][Cl].c1ccc(C2CCCN2)nc1 (centres unmarked) [Complex 1, [Pt(PyPy)(Cl)2]]	16 ± 1.7
[Cl][Pt][Cl].c1ccc(-c2ncc[nH]2)nc1 [Complex 2, [Pt(ImPy)(Cl)2]]	4 ± 1
[Cl][Pt][Cl].c1ccc(-c2nc3ccccc3[nH]2)nc1 [Complex 3, [Pt(BImPy)(Cl)2]]	15 ± 3.1
N[C@H]1CCCC[C@@H]1N.[Pt+2].c1ccc(C2CCCN2)nc1 [Complex 4a, [Pt(2-pyrrolidin-2-yl pyridine)(1S,2S-(+)-diaminocyclohexane)]^2+]	4.4 ± 0.7

System: not given
Assay: not given
Format: physicochemical
Details: not given
Method: Lipophilicity was calculated using RP-HPLC. A stock solution of each PC was injected at different isocratic ratios ranging from 70–90% solvent B (organic) at a flow rate of 1 mL·min^−1 [32, 33, 34]. The complexes have low solubility in water, often requiring DMSO to make concentrated solutions. Yet the LogK’ calculated using these experimental data indicated high lipophilicity, which is typical for 2+ charged complexes. […] When heat was applied, they would not precipitate out of the solution after cooling. This confirmed that a lack of persistence was the cause of the “observed” low solubility in H2O. […] Their increased lipophilicity may indicate they have the potential to be administered orally, a characteristic usually associated with Pt(IV) complexes. Other factors, such as stability and cellular absorption, would need to be considered before the potential of these Pt(II) anticancer agents could be evaluated.
Lipophilicity was evaluated using RP-HPLC, whereby LogKw is calculated by injecting a stock solution of the PC at different isocratic ratios ranging from 70–90% solvent B (organic) at a flow rate of 1 mL·min^−1. An Agilent Technologies 1260 Infinity machine equipped with a Phenomenex Onyx™ Monolithic C18 reverse phase column (100 × 4.6 mm, 130 Å) was used to determine purity. The mobile phase comprised 0.06% TFA in water (solvent A) and 0.06% TFA in 90:10 ACN:H2O mixture (solvent B). The PC peak was eluted outside the dead zero volume time to avoid inaccurate results. The dead zero volume time was determined using potassium iodide as an external dead volume marker, with further details in the Supplementary Materials. The subsequent peaks were recorded, and K was calculated using Equation (6). (6) K=tr−t0/t0 where K is the capacity factor, tr is the retention time of the analyte, and t0 is the dead time determined using a solution of KI in the same column. At least five different isocratic ratios were used to assess each PC, and each experiment was repeated three times. LogK’ was then calculated and plotted against the concentration of ACN in the mobile phase. […] (7) LogK^′=Sφ+LogKw where S is the slope, φ is the concentration of ACN in the mobile phase, and LogKw represents the capacity factor of the compound in 100% water (Figure S49).

Structure (SMILES)	Lipophilicity
N[C@H]1CCCC[C@@H]1N.[Pt+2].c1ccc(C2CCCN2)nc1 [Complex 4a, [Pt(2-pyrrolidin-2-yl pyridine)(1S,2S-(+)-diaminocyclohexane)]^2+]	2.68 ± 0.02

System: U87 (Glioblastoma)
Assay: MTT cytotoxicity assay, U87
Format: cell-based
Details: 72 h exposure

Structure (SMILES)	GI50 [µM]
N.N.[Cl][Pt][Cl] [Cisplatin, reference compound]	4 ± 1.1
[Cl][Pt][Cl].c1ccc(C2CCCN2)nc1 (centres unmarked) [Complex 1, [Pt(PyPy)(Cl)2]]	36 ± 1.5
[Cl][Pt][Cl].c1ccc(-c2ncc[nH]2)nc1 [Complex 2, [Pt(ImPy)(Cl)2]]	30 ± 2
[Cl][Pt][Cl].c1ccc(-c2nc3ccccc3[nH]2)nc1 [Complex 3, [Pt(BImPy)(Cl)2]]	37 ± 2
N[C@H]1CCCC[C@@H]1N.[Pt+2].c1ccc(C2CCCN2)nc1 [Complex 4a, [Pt(2-pyrrolidin-2-yl pyridine)(1S,2S-(+)-diaminocyclohexane)]^2+]	48 ± 2.6

System: A431 (Skin)
Assay: MTT cytotoxicity assay, A431
Format: cell-based
Details: 72 h exposure

Structure (SMILES)	GI50 [µM]
N.N.[Cl][Pt][Cl] [Cisplatin, reference compound]	1.2 ± 0.1
[Cl][Pt][Cl].c1ccc(C2CCCN2)nc1 (centres unmarked) [Complex 1, [Pt(PyPy)(Cl)2]]	> 50
[Cl][Pt][Cl].c1ccc(-c2ncc[nH]2)nc1 [Complex 2, [Pt(ImPy)(Cl)2]]	42 ± 3.5
[Cl][Pt][Cl].c1ccc(-c2nc3ccccc3[nH]2)nc1 [Complex 3, [Pt(BImPy)(Cl)2]]	47 ± 2.5
N[C@H]1CCCC[C@@H]1N.[Pt+2].c1ccc(C2CCCN2)nc1 [Complex 4a, [Pt(2-pyrrolidin-2-yl pyridine)(1S,2S-(+)-diaminocyclohexane)]^2+]	9 ± 2.3

System: MCF-7 (Breast)
Assay: MTT cytotoxicity assay, MCF-7
Format: cell-based
Details: 72 h exposure

Structure (SMILES)	GI50 [µM]
N.N.[Cl][Pt][Cl] [Cisplatin, reference compound]	6.5 ± 0.8
[Cl][Pt][Cl].c1ccc(C2CCCN2)nc1 (centres unmarked) [Complex 1, [Pt(PyPy)(Cl)2]]	30 ± 1
[Cl][Pt][Cl].c1ccc(-c2ncc[nH]2)nc1 [Complex 2, [Pt(ImPy)(Cl)2]]	25 ± 2.3
[Cl][Pt][Cl].c1ccc(-c2nc3ccccc3[nH]2)nc1 [Complex 3, [Pt(BImPy)(Cl)2]]	12 ± 1.2
N[C@H]1CCCC[C@@H]1N.[Pt+2].c1ccc(C2CCCN2)nc1 [Complex 4a, [Pt(2-pyrrolidin-2-yl pyridine)(1S,2S-(+)-diaminocyclohexane)]^2+]	3.2 ± 0.6

System: MIA (Pancreas)
Assay: MTT cytotoxicity assay, MIA
Format: cell-based
Details: 72 h exposure

Structure (SMILES)	GI50 [µM]
[Cl][Pt][Cl].c1ccc(C2CCCN2)nc1 (centres unmarked) [Complex 1, [Pt(PyPy)(Cl)2]]	> 50
[Cl][Pt][Cl].c1ccc(-c2ncc[nH]2)nc1 [Complex 2, [Pt(ImPy)(Cl)2]]	29 ± 2.3
[Cl][Pt][Cl].c1ccc(-c2nc3ccccc3[nH]2)nc1 [Complex 3, [Pt(BImPy)(Cl)2]]	> 50
N[C@H]1CCCC[C@@H]1N.[Pt+2].c1ccc(C2CCCN2)nc1 [Complex 4a, [Pt(2-pyrrolidin-2-yl pyridine)(1S,2S-(+)-diaminocyclohexane)]^2+]	12 ± 1

System: Du145 (Prostate)
Assay: MTT cytotoxicity assay, Du145
Format: cell-based
Details: 72 h exposure

Structure (SMILES)	GI50 [µM]
N.N.[Cl][Pt][Cl] [Cisplatin, reference compound]	1.9 ± 0.2
[Cl][Pt][Cl].c1ccc(C2CCCN2)nc1 (centres unmarked) [Complex 1, [Pt(PyPy)(Cl)2]]	> 50
[Cl][Pt][Cl].c1ccc(-c2ncc[nH]2)nc1 [Complex 2, [Pt(ImPy)(Cl)2]]	36 ± 1.3
[Cl][Pt][Cl].c1ccc(-c2nc3ccccc3[nH]2)nc1 [Complex 3, [Pt(BImPy)(Cl)2]]	> 50
N[C@H]1CCCC[C@@H]1N.[Pt+2].c1ccc(C2CCCN2)nc1 [Complex 4a, [Pt(2-pyrrolidin-2-yl pyridine)(1S,2S-(+)-diaminocyclohexane)]^2+]	47 ± 1.7

System: MCF10A (Breast, Normal)
Assay: MTT cytotoxicity assay, MCF10A non-cancer breast cells
Format: cell-based
Details: 72 h exposure

Structure (SMILES)	GI50 [µM]
[Cl][Pt][Cl].c1ccc(C2CCCN2)nc1 (centres unmarked) [Complex 1, [Pt(PyPy)(Cl)2]]	> 50
[Cl][Pt][Cl].c1ccc(-c2ncc[nH]2)nc1 [Complex 2, [Pt(ImPy)(Cl)2]]	13 ± 0.6
[Cl][Pt][Cl].c1ccc(-c2nc3ccccc3[nH]2)nc1 [Complex 3, [Pt(BImPy)(Cl)2]]	45 ± 3.2
N[C@H]1CCCC[C@@H]1N.[Pt+2].c1ccc(C2CCCN2)nc1 [Complex 4a, [Pt(2-pyrrolidin-2-yl pyridine)(1S,2S-(+)-diaminocyclohexane)]^2+]	42 ± 3

System: HT29 (Colon)
Assay: MTT cytotoxicity assay, HT29
Format: cell-based
Details: 72 h exposure

Structure (SMILES)	GI50 [µM]
N.N.[Cl][Pt][Cl] [Cisplatin, reference compound]	11 ± 1.9
[Cl][Pt][Cl].c1ccc(C2CCCN2)nc1 (centres unmarked) [Complex 1, [Pt(PyPy)(Cl)2]]	53 ± 1
[Cl][Pt][Cl].c1ccc(-c2ncc[nH]2)nc1 [Complex 2, [Pt(ImPy)(Cl)2]]	34 ± 2
[Cl][Pt][Cl].c1ccc(-c2nc3ccccc3[nH]2)nc1 [Complex 3, [Pt(BImPy)(Cl)2]]	> 50
N[C@H]1CCCC[C@@H]1N.[Pt+2].c1ccc(C2CCCN2)nc1 [Complex 4a, [Pt(2-pyrrolidin-2-yl pyridine)(1S,2S-(+)-diaminocyclohexane)]^2+]	> 50

System: SJ-G2 (Glioblastoma)
Assay: MTT cytotoxicity assay, SJ-G2
Format: cell-based
Details: 72 h exposure

Structure (SMILES)	GI50 [µM]
N.N.[Cl][Pt][Cl] [Cisplatin, reference compound]	7.5 ± 1.3
[Cl][Pt][Cl].c1ccc(C2CCCN2)nc1 (centres unmarked) [Complex 1, [Pt(PyPy)(Cl)2]]	> 50
[Cl][Pt][Cl].c1ccc(-c2ncc[nH]2)nc1 [Complex 2, [Pt(ImPy)(Cl)2]]	14 ± 0.17
[Cl][Pt][Cl].c1ccc(-c2nc3ccccc3[nH]2)nc1 [Complex 3, [Pt(BImPy)(Cl)2]]	42 ± 1.5
N[C@H]1CCCC[C@@H]1N.[Pt+2].c1ccc(C2CCCN2)nc1 [Complex 4a, [Pt(2-pyrrolidin-2-yl pyridine)(1S,2S-(+)-diaminocyclohexane)]^2+]	17 ± 1.9

System: BE2-C (Neuroblastoma)
Assay: MTT cytotoxicity assay, BE2-C
Format: cell-based
Details: 72 h exposure

Structure (SMILES)	GI50 [µM]
N.N.[Cl][Pt][Cl] [Cisplatin, reference compound]	0.4 ± 0.1
[Cl][Pt][Cl].c1ccc(C2CCCN2)nc1 (centres unmarked) [Complex 1, [Pt(PyPy)(Cl)2]]	> 50
[Cl][Pt][Cl].c1ccc(-c2ncc[nH]2)nc1 [Complex 2, [Pt(ImPy)(Cl)2]]	37 ± 4
[Cl][Pt][Cl].c1ccc(-c2nc3ccccc3[nH]2)nc1 [Complex 3, [Pt(BImPy)(Cl)2]]	> 50
N[C@H]1CCCC[C@@H]1N.[Pt+2].c1ccc(C2CCCN2)nc1 [Complex 4a, [Pt(2-pyrrolidin-2-yl pyridine)(1S,2S-(+)-diaminocyclohexane)]^2+]	37.5 ± 0.5

System: Calf-thymus DNA (ctDNA)
Assay: Fluorescent intercalator displacement (FID) ctDNA binding assay with ethidium bromide
Design: Ka (binding coefficient) / KF (binding constant for fluorescence) / Kq (bimolecular quenching constant) / KSV (Stern–Volmer quenching constant): unit not given here
Details: 75 µM ethidium bromide, 150 µM ctDNA, pH 7.0
Method: To achieve this, the fluorescent signal of a DNA intercalator, in this case, ethidium bromide (EtBr), is measured as increasing concentrations of PC are added. As the PC displaces the EtBr, the fluorescence of the mixture is diminished, and the DNA binding capacity of the complex can be calculated from the fluorescence measurement. Calf-thymus DNA (ctDNA) was used and saturated with EtBr. The change in fluorescence is monitored as the complex is titrated into this solution. Once the decrease in fluorescence plateaued, the titration was ended. […] The fluorescence was measured from 550-750 nm and excited at 480 nm. Importantly, the cuvette was inverted four times, and the solution was incubated for 3 min after the addition of […] to allow adequate time for the PCs to interact with the DNA before scanning. […] A plot of F0/F against [PC] using experimental values allowed the determination of Kq and KSV from the slope as per Equation (5). (5) […] where n is the number of ethidium ligands that are displaced per PC. It is important to note that this expression is a simplification of the true binding interaction, as it ignores the effect of EtBr on the binding equilibrium. […] A plot of Log10[(F0 - F)/F)] against Log10[PC] was used to determine KF and n from the intercept and slope, respectively.

Structure (SMILES)	Binding Stoichiometry	KF (binding constant for fluorescence)	KSV (Stern–Volmer quenching constant)	Ka (binding coefficient)	Kq (bimolecular quenching constant)	n (molar equivalents of PC at the point of intersection)	ΔFsat (change in fluorescence at the point of binding)
[Cl][Pt][Cl].c1ccc(C2CCCN2)nc1 (centres unmarked) [Complex 1, [Pt(PyPy)(Cl)2]]	3.61	2.69 × 10^3	1.65 × 10^3	5.05 × 10^4	0.40 × 10^3	0.91	99.1
[Cl][Pt][Cl].c1ccc(-c2ncc[nH]2)nc1 [Complex 2, [Pt(ImPy)(Cl)2]]	3.82	3.12 × 10^3	1.68 × 10^3	2.75 × 10^4	0.50 × 10^3	1.18	80.9
[Cl][Pt][Cl].c1ccc(-c2nc3ccccc3[nH]2)nc1 [Complex 3, [Pt(BImPy)(Cl)2]]	3.40	3.72 × 10^3	2.18 × 10^3	5.10 × 10^4	0.51 × 10^3	1.24	110.3
N[C@H]1CCCC[C@@H]1N.[Pt+2].c1ccc(C2CCCN2)nc1 [Complex 4a, [Pt(2-pyrrolidin-2-yl pyridine)(1S,2S-(+)-diaminocyclohexane)]^2+]	1.48	6.20 × 10^3	4.16 × 10^3	1.06 × 10^4	0.83 × 10^3	1.83	135.0
